Test results: patent US8722863B2, “Solid state forms of fidaxomycin and processes for preparation thereof” (Teva Pharmaceutical Works Ltd., priority 2012, dated 2014)

Assays:
[1] = hygroscopicity test according to the European pharmacopeia 5.11; format: physicochemical; details: Ph. Eur. chapter 5.11 hygroscopicity test
Description: As used herein and unless indicated otherwise, the term “non-hygroscopic” in relation to crystalline Fidaxomycin refers to less than 0.5%, and preferably less than 0.2% (w/w) absorption of water, for example atmospheric water, by the crystalline Fidaxomycin, as determined according to Ph. Eur. chapter 5.11 (“Hygroscopicity”).
As discussed above, Fidaxomycin Form Z1 has advantageous properties. In particular, the crystalline Fidaxomycin Form Z1 of the present invention is non-hygroscopic. When performing the hygroscopicity test according to the European pharmacopeia 5.11, the mass increase of Form Z1 was below about 0.2%. The advantageous of form Z1 as non-hygroscopic material provides better processing of Fidaxomycin in formulation. e.g., being less sticky and stable following granulation procedure.

[2] = stability in formulations; format: physicochemical; details: retains the anhydrous polymorph
Description: The ability to retain the anhydrous polymorph provides an opportunity to improve the performance characteristic in formulation e.g. dissolution profile and bioavailability.

Clostridium difficile = details: cited from earlier work
[3] = stability under extreme conditions; format: physicochemical
Description: As discussed above, Form C of Fidaxomycin has advantageous properties. In particular, Form C of Fidaxomycin of the present invention can be reproduced in a high quality, i.e., chemical and polymorphical purity. The X-ray powder diffraction pattern of Form C is obtained in high crystallinity, as indicated by a high resolution PXRD pattern with relatively sharp, defined peaks. In addition, Form C is stable under extreme conditions.

Structure (SMILES): CCc1c(Cl)c(O)c(Cl)c(O)c1C(=O)O[C@H]1[C@H](O)[C@H](OC)[C@H](OC/C2=C\C=C\C[C@H](O)/C(C)=C/[C@H](CC)[C@@H](O[C@@H]3OC(C)(C)[C@@H](OC(=O)C(C)C)[C@H](O)[C@@H]3O)/C(C)=C/C(C)=C/C[C@@H]([C@@H](C)O)OC2=O)O[C@@H]1C [Form Z1]
- mass increase (hygroscopicity) [1]: below 0.2%
- stability in formulations [2]: excellent stability

Structure (SMILES): CCc1c(Cl)c(O)c(Cl)c(O)c1C(=O)O[C@H]1[C@H](O)[C@H](OC)[C@H](OC/C2=C\C=C\C[C@H](O)/C(C)=C/[C@H](CC)[C@@H](O[C@@H]3OC(C)(C)[C@@H](OC(=O)C(C)C)[C@H](O)[C@@H]3O)/C(C)=C/C(C)=C/C[C@@H]([C@@H](C)O)OC2=O)O[C@@H]1C [Fidaxomycin, 3-(((6-Deoxy-4-O-(3,5-dichloro-2-ethyl-4,6-dihydroxybenzoyl)-2-O-methyl-β-D-mannopyranosyl)oxy)-methyl)-12(R)-[(6-deoxy-5-C-methyl-4-O-(2-methyl-1-oxopropyl)-b-D-lyxo-hexopyranosyl)oxy]-11(S)-ethyl-8(S)-hydroxy-18(S)-(1(R)-hydroxyethyl)-9,13,15-trimethyloxacyclooctadeca-3,5,9,13,15-pentaene-2-one]
- activity against Clostridium difficile (Clostridium difficile): shows activity

Structure (SMILES): CCc1c(Cl)c(O)c(Cl)c(O)c1C(=O)O[C@H]1[C@H](O)[C@H](OC)[C@H](OC/C2=C\C=C\C[C@H](O)/C(C)=C/[C@H](CC)[C@@H](O[C@@H]3OC(C)(C)[C@@H](OC(=O)C(C)C)[C@H](O)[C@@H]3O)/C(C)=C/C(C)=C/C[C@@H]([C@@H](C)O)OC2=O)O[C@@H]1C [Form C]
- stability under extreme conditions [3]: stable
